Molecular target: Rho-associated protein kinase 2 (Homo sapiens, UniProt O75116)
Assay: Z-lyte assay: Compounds activities were measured by Z'-lyte kinase kit (ThermoFisher Scientific). The percent inhibition rate was calculated by normalizing the kinase activity value obtained with 1 μM compound treatment against DMSO control value. IC50s were calculated using the GraphPad Prism software with kinase activities data that were collected from 9 points serial dilution of compounds treatment.

Chain of Rho-associated protein kinase 2 (O75116 whole entry): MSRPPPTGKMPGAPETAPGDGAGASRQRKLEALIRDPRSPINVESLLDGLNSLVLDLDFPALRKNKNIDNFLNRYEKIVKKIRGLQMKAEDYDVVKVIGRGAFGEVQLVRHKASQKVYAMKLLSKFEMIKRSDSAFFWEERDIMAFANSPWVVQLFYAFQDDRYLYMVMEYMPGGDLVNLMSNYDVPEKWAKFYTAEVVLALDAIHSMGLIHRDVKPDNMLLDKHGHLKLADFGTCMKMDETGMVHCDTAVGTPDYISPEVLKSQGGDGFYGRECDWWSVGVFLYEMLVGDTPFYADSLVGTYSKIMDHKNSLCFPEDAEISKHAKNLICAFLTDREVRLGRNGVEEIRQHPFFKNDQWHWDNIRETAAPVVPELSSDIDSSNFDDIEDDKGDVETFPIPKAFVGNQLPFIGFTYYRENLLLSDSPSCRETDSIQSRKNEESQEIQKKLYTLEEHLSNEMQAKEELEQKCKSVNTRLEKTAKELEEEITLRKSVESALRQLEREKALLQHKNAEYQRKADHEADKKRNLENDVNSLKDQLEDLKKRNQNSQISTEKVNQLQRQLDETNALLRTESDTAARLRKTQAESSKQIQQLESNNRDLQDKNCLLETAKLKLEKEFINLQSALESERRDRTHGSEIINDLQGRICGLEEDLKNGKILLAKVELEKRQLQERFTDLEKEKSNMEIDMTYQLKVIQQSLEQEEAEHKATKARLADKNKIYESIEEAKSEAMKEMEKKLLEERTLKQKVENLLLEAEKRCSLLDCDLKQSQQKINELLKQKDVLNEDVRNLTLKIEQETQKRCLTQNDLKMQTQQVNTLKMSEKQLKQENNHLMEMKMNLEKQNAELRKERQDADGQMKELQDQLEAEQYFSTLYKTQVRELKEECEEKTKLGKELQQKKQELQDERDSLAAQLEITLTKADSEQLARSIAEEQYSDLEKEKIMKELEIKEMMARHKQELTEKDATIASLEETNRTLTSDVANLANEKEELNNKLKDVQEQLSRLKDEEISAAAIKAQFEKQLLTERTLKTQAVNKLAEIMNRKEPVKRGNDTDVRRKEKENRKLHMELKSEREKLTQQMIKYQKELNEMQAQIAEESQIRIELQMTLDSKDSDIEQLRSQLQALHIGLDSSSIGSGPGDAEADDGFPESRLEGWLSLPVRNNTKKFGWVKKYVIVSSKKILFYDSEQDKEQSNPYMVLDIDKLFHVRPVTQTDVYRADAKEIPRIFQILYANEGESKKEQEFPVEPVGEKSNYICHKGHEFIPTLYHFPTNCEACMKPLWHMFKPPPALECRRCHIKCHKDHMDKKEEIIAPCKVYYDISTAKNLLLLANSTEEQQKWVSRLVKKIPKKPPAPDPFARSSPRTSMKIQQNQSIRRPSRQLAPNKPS

CNC(C(=O)Nc1ccc(-c2cn[nH]c2)cc1)c1ccc(OC)c(F)c1 (stereo unspecified)
IC50: 21 nM
